Among the data in patent publication US10227345B2, “Compounds and methods for inhibiting fascin” (Cornell University, priority 2014, dated 2019) are inhibition values, retold here.

The target of the assay is T1, human fascin 1 (Homo sapiens, UniProt Q16658).
T1 construct: GST (N, cleaved yes); made in house; host or cells: Escherichia coli BL21/DE3 (pGEX4T-fascin 1 plasmid)
In words: Fascin inhibition (actin bundling) assay, image-based. Type of assay: biochemical. Conditions: in the presence of 50 μm of the compound relative to bundle activity when the compound was not present; read-out: Inhibition (percentage reduction of bundle activity). The procedure, abridged:
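GST-tagged human fascin 1 from E. coli, thrombin-cleaved, was preincubated with compounds for 30 min, then polymerized actin was added; compounds were at 30 μM final. Bundles captured on poly-D-lysine plates were imaged, and background-corrected bundle length per well was computed, with DMSO-only wells as negative controls.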

By inhibition is commonly meant the relative decrease from the control value, in per cent.

In the case of `Cc1ncsc1C(=O)Nc1nn(Cc2ccc(C(F)(F)F)cc2)c2c(C(F)(F)F)cccc12` [Compound 115, 4-methyl-N-(7-(trifluoromethyl)-1-(4-(trifluoromethyl)benzyl)-1H-indazol-3-yl)thiazole-5-carboxamide], the inhibition at 50 µM is less than 10%.

`Nc1nn(Cc2ccc(C(F)(F)F)cc2)c2cccc(Cl)c12` [Compound 116, 4-chloro-1-(4-(trifluoromethyl)benzyl)-1H-indazol-3-amine]: the inhibition at 50 µM was less than 10%.

Regarding `O=C(Nc1nn(Cc2ccc(C(F)(F)F)cc2)c2cccc(Cl)c12)c1ccoc1` [Compound 117, N-(4-chloro-1-(4-(trifluoromethyl)benzyl)-1H-indazol-3-yl)furan-3-carboxamide], the inhibition at 50 µM was less than 10%.

In the case of `Cc1nocc1C(=O)Nc1nn(Cc2ccc(C(F)(F)F)cc2)c2cccc(Cl)c12` [Compound 118, N-(4-chloro-1-(4-(trifluoromethyl)benzyl)-1H-indazol-3-yl)-3-methylisoxazole-4-carboxamide], the inhibition at 50 µM was less than 10%.

For the compound `Cc1occc1C(=O)Nc1nn(Cc2ccc(C(F)(F)F)cc2)c2cccc(Cl)c12` [Compound 119, N-(4-chloro-1-(4-(trifluoromethyl)benzyl)-1H-indazol-3-yl)-2-methylfuran-3-carboxamide], the inhibition at 50 µM was less than 10%.

On to `Cc1ncsc1C(=O)Nc1nn(Cc2ccc(C(F)(F)F)cc2)c2cccc(Cl)c12` [Compound 120, N-(4-chloro-1-(4-(trifluoromethyl)benzyl)-1H-indazol-3-yl)-4-methylthiazole-5-carboxamide], for which the inhibition at 50 µM is less than 10%.

On to `O=C(Nc1nn(Cc2ccc(C(F)(F)F)nc2)c2cccc(Cl)c12)c1cccnn1` [Compound 121, N-(4-chloro-1-((6-(trifluoromethyl)pyridin-3-yl)methyl)-1H-indazol-3-yl)pyridazine-3-carboxamide], for which the inhibition at 50 µM is less than 10%.

Take `Nc1nn(Cc2ccc(C(F)(F)F)cc2)c2ccc(C(F)(F)F)cc12` [Compound 122, 5-(trifluoromethyl)-1-(4-(trifluoromethyl)benzyl)-1H-indazol-3-amine]: the inhibition at 50 µM was less than 10%.

Regarding `O=C(Nc1nn(Cc2ccc(C(F)(F)F)cc2)c2ccc(C(F)(F)F)cc12)c1ccoc1` [Compound 123, N-(5-(trifluoromethyl)-1-(4-(trifluoromethyl)benzyl)-1H-indazol-3-yl)furan-3-carboxamide], the inhibition at 50 µM was less than 10%.

Turning to `Cc1nocc1C(=O)Nc1nn(Cc2ccc(C(F)(F)F)cc2)c2ccc(C(F)(F)F)cc12` [Compound 124, 3-methyl-N-(5-(trifluoromethyl)-1-(4-(trifluoromethyl)benzyl)-1H-indazol-3-yl)isoxazole-4-carboxamide], the inhibition at 50 µM was less than 10%.

With `Cc1occc1C(=O)Nc1nn(Cc2ccc(C(F)(F)F)cc2)c2ccc(C(F)(F)F)cc12` [Compound 125, 2-methyl-N-(5-(trifluoromethyl)-1-(4-(trifluoromethyl)benzyl)-1H-indazol-3-yl)furan-3-carboxamide], the inhibition at 50 µM was less than 10%.

For the compound `Cc1ncsc1C(=O)Nc1nn(Cc2ccc(C(F)(F)F)cc2)c2ccc(C(F)(F)F)cc12` [Compound 126, 4-methyl-N-(5-(trifluoromethyl)-1-(4-(trifluoromethyl)-bemzyl)-1H-indazol-3-yl)thiazole-5-carboxamide], the inhibition at 50 µM is less than 10%.

Regarding `O=C(Nc1nn(Cc2ccc(C(F)(F)F)nc2)c2ccc(C(F)(F)F)cc12)c1cccnn1` [Compound 127, N-(5-(trifluoromethyl)-1((6-(trifluoromethyl)pyridin-3-yl)methyl)-1H-indazol-3-yl)pyridazine-3-carboxamide], the inhibition at 50 µM is less than 10%.

Regarding `Cc1ccc2c(N)nn(Cc3ccc(C(F)(F)F)cc3)c2n1` [Compound 131, 6-methyl-1-(4-(trifluoromethyl)benzyl)-1H-pyrazolo[3,4-b]pyridin-3-amine], the inhibition at 50 µM was less than 10%.

Consider `Cc1ccc2c(NC(=O)c3ccoc3)nn(Cc3ccc(C(F)(F)F)cc3)c2n1` [Compound 132, N-(6-methyl-1-(4-(trifluoromethyl)benzyl)-1H-pyrazolo[3,4-b]pyridin-3-yl)furan-3-carboxamide], for which the inhibition at 50 µM was less than 10%.

`Cc1ccc2c(NC(=O)c3conc3C)nn(Cc3ccc(C(F)(F)F)cc3)c2n1` [Compound 133, 3-methyl-N-(6-methyl-1-(4-(trifluoromethyl)benzyl)-1H-pyrazolo[3,4-b]pyridin-3-yl)isoxazole-4-carboxamide]: the inhibition at 50 µM is less than 10%.

With `Cc1ccc2c(NC(=O)c3ccoc3C)nn(Cc3ccc(C(F)(F)F)cc3)c2n1` [Compound 134, 2-methyl-N-(6-methyl-1-(4-(trifluoromethyl)benzyl)-1H-pyrazolo[3,4-b]pyridin-3-yl)furan-3-carboxamide], the inhibition at 50 µM was less than 10%.

`Cc1ccc2c(NC(=O)c3scnc3C)nn(Cc3ccc(C(F)(F)F)cc3)c2n1` [Compound 135, 4-methyl-N-(6-methyl-1-(4-(trifluoromethyl)benzyl)-1H-pyrazolo[3,4-b]pyridin-3-yl)thiazole-5-carboxamide]: the inhibition at 50 µM is less than 10%.

As for `Cc1ccc2c(NC(=O)c3cccnn3)nn(Cc3ccc(C(F)(F)F)nc3)c2n1` [Compound 136, N-(6-methyl-1-((6-(trifluoromethyl)pyridin-3-yl)methyl)-1H-pyrazolo[3,4-b]pyridin-3-yl)pyridazine-3-carboxamide], the inhibition at 50 µM was less than 10%.

Take `Nc1nn(Cc2ccc(C(F)(F)F)cc2)c2cncc(Cl)c12` [Compound 137, 4-chloro-1-(4-(trifluoromethyl)benzyl)-1H-pyrazolo[3,4-c]pyridin-3-amine]: the inhibition at 50 µM is 100%.

In the case of `Cc1ncsc1C(=O)Nc1nn(Cc2ccc(C(F)(F)F)cc2)c2cncc(Cl)c12` [Compound 138, N-(4-chloro-1-(4-(trifluoromethyl)benzyl)-1H-pyrazolo[3,4-c]pyridin-3-yl)-4-methylthiazole-5-carboxamide], the inhibition at 50 µM stood at 90%.

As to `O=C(Nc1nn(Cc2ccc(C(F)(F)F)cc2)c2cncc(Cl)c12)c1ccoc1` [Compound 140, N-(4-chloro-1-(4-(trifluoromethyl)benzyl)-1H-pyrazolo[3,4-c]pyridin-3-yl)furan-3-carboxamide], the inhibition at 50 µM came out at 10%.

In the case of `Cc1occc1C(=O)Nc1nn(Cc2ccc(C(F)(F)F)cc2)c2cncc(Cl)c12` [Compound 141, N-(4-chloro-1-(4-(trifluoromethyl)benzyl)-1H-pyrazolo[3,4-c]pyridin-3-yl)-2-methylfuran-3-carboxamide], the inhibition at 50 µM came out at 10%.

Regarding `Cc1nocc1C(=O)Nc1nn(Cc2ccc(C(F)(F)F)cc2)c2cncc(Cl)c12` [Compound 142, N-(4-chloro-1-(4-(trifluoromethyl)benzyl)-1H-pyrazolo[3,4-c]pyridin-3-yl)-3-methylisoxazole-4-carboxamide], the inhibition at 50 µM is 10%.

For the compound `FC(F)(F)c1ccc(Cn2nc(Br)c3ccccc32)cc1` [Compound 143, 3-Bromo-1-(4-(trifluoromethyl)benzyl)-1H-indazole], the inhibition at 50 µM was determined as 10%.

On to `FC(F)(F)c1ccc(Cn2nc(-c3ccccc3)c3ccccc32)cc1` [Compound 144, 3-Phenyl-1-(4-(trifluoromethyl)benzyl)-1H-indazole], for which the inhibition at 50 µM was 10%.

On to `FC(F)(F)c1ccc(Cn2nc(-c3cccc4ccccc34)c3ccccc32)cc1` [Compound 145, 3-(naphthalen-1-yl)-1-(4-(trifluoromethyl)benzyl)-1H-indazole], for which the inhibition at 50 µM was 10%.

Consider `Cc1ccc(-c2nn(Cc3ccc(C(F)(F)F)cc3)c3ccccc23)o1` [Compound 146, 3-(5-methylfuran-2-yl)-1-(4-(trifluoromethyl)benzyl)-1H-indazole], for which the inhibition at 50 µM came out at 10%.

Take `FC(F)(F)c1ccc(Cn2nc(-c3ccoc3)c3ccccc32)cc1` [Compound 147, 3-(furan-3-yl)-1-(4-(trifluoromethyl)benzyl)-1H-indazole]: the inhibition at 50 µM was found to be 10%.

Regarding `Cc1occc1-c1nn(Cc2ccc(C(F)(F)F)cc2)c2ccccc12` [Compound 148, 3-(2-methylfuran-3-yl)-1-(4-(trifluoromethyl)benzyl)-1H-indazole], the inhibition at 50 µM was determined as 10%.

`CNc1nn(Cc2ccc(C(F)(F)F)cc2)c2cncc(Cl)c12` [Compound 149]: the inhibition at 50 µM turned out to be 10%.

As for `CC(=O)Nc1nn(Cc2ccc(C(F)(F)F)cc2)c2cncc(Cl)c12` [Compound 150, N-(1-(4-(trifluoromethyl)benzyl)-4-chloro-1H-pyrazolo(3,4-c)pyridyl)-3-acetamide], the inhibition at 50 µM came to 10%.

`CCC(=O)Nc1nn(Cc2ccc(C(F)(F)F)cc2)c2cncc(Cl)c12` [Compound 151, N-(4-chloro-1-(4-(trifluoromethyl)benzyl)-1H-pyrazolo[3,4-c]pyridin-3-yl)propionamide]: the inhibition at 50 µM is 80%.

In the case of `CC(C)C(=O)Nc1nn(Cc2ccc(C(F)(F)F)cc2)c2cncc(Cl)c12` [Compound 152, N-(4-chloro-1-(4-(trifluoromethyl)benzyl)-1H-pyrazolo[3,4-c]pyridin-3-yl)isobutyramide], the inhibition at 50 µM was determined as 100%.

Turning to `CCCC(=O)Nc1nn(Cc2ccc(C(F)(F)F)cc2)c2cncc(Cl)c12` [Compound 153, N-(4-chloro-1-(4-(trifluoromethyl)benzyl)-1H-pyrazolo[3,4-c]pyridin-3-yl)butyramide], the inhibition at 50 µM was 10%.

With `N#Cc1ccc2c(c1)c(NC(=O)c1cccnn1)nn2Cc1ccc(C(F)(F)F)nc1` [N-(5-cyano-1-((6-(trifluoromethyl)pyridin-3-yl)methyl)-1H-indazol-3-yl)pyridazine-3-carboxamide], the inhibition at 50 µM is less than 10%.
